The numbers were not newly measured in article PMC5941726, “Evaluating Hepatobiliary Transport with ^18F-Labeled Bile Acids: The Effect of Radiolabel Position and Bile Acid Structure on Radiosynthesis and In Vitro and In Vivo Performance” (Contrast Media & Molecular Imaging, 2018), which cites them from elsewhere.

Common to all, as to conditions: Ki calculated from IC50-values extracted from literature; cited from earlier work
One data set addresses BSEP (Homo sapiens, UniProt O95342). Also noted: purchased Pharmtox; method as in PMID 28273180.
Another data set addresses T1, OATP1B1 (Homo sapiens, UniProt Q9Y6L6).
T1 sequence (Q9Y6L6 1-691): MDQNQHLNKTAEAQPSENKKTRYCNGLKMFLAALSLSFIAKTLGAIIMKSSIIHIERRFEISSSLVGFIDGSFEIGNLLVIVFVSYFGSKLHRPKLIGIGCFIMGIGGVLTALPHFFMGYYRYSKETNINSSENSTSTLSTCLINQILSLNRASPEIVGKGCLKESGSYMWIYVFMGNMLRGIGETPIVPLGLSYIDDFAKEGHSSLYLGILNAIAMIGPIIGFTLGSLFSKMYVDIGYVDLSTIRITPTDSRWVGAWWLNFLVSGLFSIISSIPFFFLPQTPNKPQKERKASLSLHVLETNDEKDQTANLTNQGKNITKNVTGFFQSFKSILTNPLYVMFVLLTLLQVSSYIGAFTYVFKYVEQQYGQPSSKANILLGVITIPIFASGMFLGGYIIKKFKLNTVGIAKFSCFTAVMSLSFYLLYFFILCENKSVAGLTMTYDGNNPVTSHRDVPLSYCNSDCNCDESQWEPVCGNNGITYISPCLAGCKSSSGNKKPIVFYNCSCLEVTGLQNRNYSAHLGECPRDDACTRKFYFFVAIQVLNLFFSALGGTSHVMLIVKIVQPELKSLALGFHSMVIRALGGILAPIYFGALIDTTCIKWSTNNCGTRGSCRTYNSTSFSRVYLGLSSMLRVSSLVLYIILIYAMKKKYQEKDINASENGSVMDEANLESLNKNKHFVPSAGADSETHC
Details: host or cells: Human Embryonic Kidney (HEK) cells; method as in PMID 28273180.

A further data set deals with T2, NTCP (Homo sapiens, UniProt Q14973).
T2 construct: host or cells: Chinese Hamster Ovary (CHO) cells
T2 sequence (Q14973 1-349): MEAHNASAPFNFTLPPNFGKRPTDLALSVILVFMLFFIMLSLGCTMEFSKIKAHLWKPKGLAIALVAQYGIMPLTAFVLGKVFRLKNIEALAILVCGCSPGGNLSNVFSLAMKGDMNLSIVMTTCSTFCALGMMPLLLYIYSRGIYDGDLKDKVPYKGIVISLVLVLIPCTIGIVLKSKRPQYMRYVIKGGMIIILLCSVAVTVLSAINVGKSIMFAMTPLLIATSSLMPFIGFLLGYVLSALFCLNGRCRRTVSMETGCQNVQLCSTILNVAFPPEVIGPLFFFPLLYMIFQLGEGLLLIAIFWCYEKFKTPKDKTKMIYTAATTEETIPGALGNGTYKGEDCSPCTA
Details: method as in PMID 28273180.

Sequence of BSEP (O95342 whole entry, species assumed): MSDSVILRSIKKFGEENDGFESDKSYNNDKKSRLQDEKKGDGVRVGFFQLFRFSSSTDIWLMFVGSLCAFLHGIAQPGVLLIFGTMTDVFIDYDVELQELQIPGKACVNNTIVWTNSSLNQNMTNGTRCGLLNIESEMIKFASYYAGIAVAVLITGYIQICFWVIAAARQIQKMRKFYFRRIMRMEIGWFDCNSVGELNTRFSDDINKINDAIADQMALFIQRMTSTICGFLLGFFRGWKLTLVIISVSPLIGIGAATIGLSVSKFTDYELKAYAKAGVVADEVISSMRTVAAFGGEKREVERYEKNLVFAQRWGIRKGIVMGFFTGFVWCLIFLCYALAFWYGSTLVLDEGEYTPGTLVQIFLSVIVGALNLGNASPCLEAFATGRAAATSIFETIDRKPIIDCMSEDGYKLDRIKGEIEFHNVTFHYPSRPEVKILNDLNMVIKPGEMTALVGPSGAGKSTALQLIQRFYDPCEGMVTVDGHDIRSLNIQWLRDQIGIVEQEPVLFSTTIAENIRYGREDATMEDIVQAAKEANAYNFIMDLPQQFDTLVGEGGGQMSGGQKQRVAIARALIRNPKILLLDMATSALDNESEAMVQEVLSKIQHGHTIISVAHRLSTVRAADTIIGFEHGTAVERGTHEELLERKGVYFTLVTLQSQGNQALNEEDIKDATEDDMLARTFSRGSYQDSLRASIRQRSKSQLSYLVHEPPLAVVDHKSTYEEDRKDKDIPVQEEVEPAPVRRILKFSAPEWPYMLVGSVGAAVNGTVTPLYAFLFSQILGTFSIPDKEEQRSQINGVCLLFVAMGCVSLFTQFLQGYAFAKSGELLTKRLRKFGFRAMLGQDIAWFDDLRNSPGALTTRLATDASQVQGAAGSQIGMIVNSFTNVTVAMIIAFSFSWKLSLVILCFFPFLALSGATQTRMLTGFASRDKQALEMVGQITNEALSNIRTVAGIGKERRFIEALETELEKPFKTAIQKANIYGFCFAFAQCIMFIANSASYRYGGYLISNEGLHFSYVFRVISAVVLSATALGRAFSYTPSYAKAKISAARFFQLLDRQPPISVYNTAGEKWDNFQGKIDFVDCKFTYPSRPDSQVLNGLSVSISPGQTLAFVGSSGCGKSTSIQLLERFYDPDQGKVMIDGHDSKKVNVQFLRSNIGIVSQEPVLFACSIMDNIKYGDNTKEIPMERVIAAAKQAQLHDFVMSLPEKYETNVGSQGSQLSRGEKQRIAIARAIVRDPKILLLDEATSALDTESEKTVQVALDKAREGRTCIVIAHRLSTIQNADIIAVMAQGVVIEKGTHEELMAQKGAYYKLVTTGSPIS

As usually defined, the Ki is the equilibrium dissociation constant of an inhibitor or competing ligand from its target. On to `C[C@H](CCC(=O)O)[C@H]1CC[C@H]2[C@@H]3[C@H](O)C[C@@H]4C[C@@H](F)CC[C@]4(C)[C@H]3C[C@H](O)[C@]12C` [3βFCA], for which the Ki at BSEP is 216 ± 53 µM; on OATP1B1, 9.67 ± 0.83 µM; at NTCP it was 6.18 ± 0.59 µM.
